Reference: patent US12391685B2, “Inhibitors of RNA-guided nuclease target binding and uses thereof” (THE BROAD INSTITUTE, INC., priority 2018, dated 2025)

Target: SpCas9 (Streptococcus pyogenes serotype M1, UniProt Q99ZW2)
Experiment: eGFP-disruption assay in U2OS.eGFP.PEST cells
Type: cell-based, S. pyogenes
Design: host or cells: U2OS.eGFP.PEST
Conditions: for Average Inhibition activity / Inhibition activity Rep 1 / Inhibition activity Rep 2: screen of structural analogs of BRD7087, 15 μM compound, 24 h, U2OS.eGFP.PEST cells
Procedure: SpCas9 nuclease activity in eGFP-disruption assay. Approximately 200,000 U2OS.eGFP-PEST cells were nucleofected following two different methods either by nucleofecting plasmids or RNP using the SE Cell Line 4D-Nucleofector™ X Kit (Lonza) according to the manufacturer's protocol. In the plasmid nucleofection method, cells were nucleofected either with 440 ng of SpCas9 (Addgene Plasmid #43861) or 400 ng of SpCas9 along with 40 ng of sgRNA (pFYF1320 eGFP Site #1, Addgene Plasmid #47511). Cells nucleofected only with SpCas9-expressing plasmid were used as the transfection control. In the RNP nucleofection method, either […] SpCas9 or 20 pmol preformed SpCas9:gRNA (eGFP Site #1) complex were nucleofected. Approximately 20,000 transfected cells/well were plated in 4 replicates in a 96-well plate (Corning® 3904). Cells were incubated with the indicated amount of compound or DMSO for 24 h post transfection. A DMSO solution of compound (20 mM) was resuspended in the 10% FBS containing growth media and thoroughly mixed before adding to the cells. Cells were then fixed using 4% paraformaldehyde and imaged with the HCS NuclearMask™ Blue Stain (Life Technologies) as the nuclear counter-staining agent. Imaging was performed with an ImageXpress Micro automated microscope (Molecular Devices) at 10× magnification under three excitation channels (blue, green and red) acquiring nine sites per well. Images were analyzed using MetaXpress software and data were plotted using GraphPad Prism 6.
The Z′-value was calculated using the equation (1), where σ1 and σ2 are the standard deviations of DMSO control and SpCas9:gRNA control respectively. μ1 and μ2 are the mean % GFP^− cell population for DMSO control and SpCas9:gRNA control, respectively.

Sequence of SpCas9 (Q99ZW2 whole entry): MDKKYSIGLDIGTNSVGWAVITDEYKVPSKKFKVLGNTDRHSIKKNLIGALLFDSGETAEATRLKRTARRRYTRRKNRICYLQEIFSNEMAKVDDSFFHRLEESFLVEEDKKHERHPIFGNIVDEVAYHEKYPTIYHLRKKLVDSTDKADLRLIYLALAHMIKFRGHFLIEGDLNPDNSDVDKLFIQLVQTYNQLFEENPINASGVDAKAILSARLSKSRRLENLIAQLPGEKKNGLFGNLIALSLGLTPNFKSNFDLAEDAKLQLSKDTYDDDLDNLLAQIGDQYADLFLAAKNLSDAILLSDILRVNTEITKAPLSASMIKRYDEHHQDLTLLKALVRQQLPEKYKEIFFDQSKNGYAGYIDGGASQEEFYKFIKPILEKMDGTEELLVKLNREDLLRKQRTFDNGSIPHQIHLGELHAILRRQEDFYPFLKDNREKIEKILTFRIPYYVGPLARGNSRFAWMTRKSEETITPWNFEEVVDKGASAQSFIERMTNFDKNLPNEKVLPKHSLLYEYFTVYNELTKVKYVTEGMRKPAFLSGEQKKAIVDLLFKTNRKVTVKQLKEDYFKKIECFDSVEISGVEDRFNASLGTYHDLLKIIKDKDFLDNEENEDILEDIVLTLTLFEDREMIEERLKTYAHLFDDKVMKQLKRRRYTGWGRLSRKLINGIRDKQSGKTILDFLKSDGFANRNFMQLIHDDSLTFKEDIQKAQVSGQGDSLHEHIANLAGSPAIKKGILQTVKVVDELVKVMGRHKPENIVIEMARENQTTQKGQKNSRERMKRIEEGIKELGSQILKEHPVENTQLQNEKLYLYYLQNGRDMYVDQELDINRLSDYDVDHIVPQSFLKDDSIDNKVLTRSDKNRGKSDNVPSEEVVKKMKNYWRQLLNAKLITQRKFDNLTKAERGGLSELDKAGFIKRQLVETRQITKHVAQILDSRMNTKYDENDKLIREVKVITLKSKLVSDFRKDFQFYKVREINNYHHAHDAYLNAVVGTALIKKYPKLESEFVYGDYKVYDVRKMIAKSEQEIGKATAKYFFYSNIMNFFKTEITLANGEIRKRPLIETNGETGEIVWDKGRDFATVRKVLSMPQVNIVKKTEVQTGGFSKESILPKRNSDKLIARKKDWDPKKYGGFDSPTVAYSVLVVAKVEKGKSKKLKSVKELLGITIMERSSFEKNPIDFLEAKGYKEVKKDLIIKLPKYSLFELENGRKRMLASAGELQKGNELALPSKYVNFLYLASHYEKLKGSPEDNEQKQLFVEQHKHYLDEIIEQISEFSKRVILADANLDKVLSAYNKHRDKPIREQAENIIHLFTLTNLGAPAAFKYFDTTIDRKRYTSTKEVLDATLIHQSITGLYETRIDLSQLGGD

Row | Compound | Average Inhibition activity | Inhibition activity Rep 1 | Inhibition activity Rep 2 | decrease of activity with respect to BRD0539 (structural analogs of BRD0539, R2=a, R1 varied) [%]
1 | COc1ccc(S(=O)(=O)N2CC[C@@H]3[C@H](CO)N(C)c4ccc(-c5ccccc5F)cc4[C@@H]32)cc1 [BRD-K69451415] | 53.4 | 56.2 | 50.6 | –
2 | C/C=C/c1ccc2c(c1)[C@H]1[C@H](CCN1C(=O)c1ccc(F)cc1)[C@H](CO)N2 [BRD-K81261525] | 74.3 | 71.3 | 77.4 | –
3 | OC[C@@H]1Nc2ccc(C#Cc3cccnc3)cc2[C@H]2NCC[C@@H]12 [BRD-K71200053] | 67.6 | 54.6 | 80.6 | –
4 | O=C(c1ccc(F)cc1)N1CC[C@@H]2[C@H]1c1cc(C#Cc3ccccc3F)ccc1N[C@@H]2CO [BRD-K79906422] | 51.1 | 51.3 | 50.9 | –
5 | O=S(=O)(c1cccc(F)c1)N1CC[C@H]2[C@H](CO)Nc3ccc(C#Cc4ccccc4F)cc3[C@H]21 [BRD-K67297693] | 72.2 | 64.3 | 80.1 | –
6 | O=S(=O)(c1cccc(F)c1)N1CC[C@@H]2[C@H](CO)Nc3ccc(C#Cc4ccccc4F)cc3[C@@H]21 [BRD-K12807496] | 60.8 | 50.9 | 70.7 | –
7 | CN1c2ccc(C#Cc3ccccc3)cc2[C@@H]2[C@@H](CCN2S(=O)(=O)c2cn(C)cn2)[C@H]1CO [BRD-A34097118] | 60.1 | 50.1 | 70.1 | –
8 | CN1c2ccc(C#Cc3cccnc3)cc2[C@@H]2[C@@H](CCN2C(=O)c2cccc(F)c2)[C@H]1CO [BRD-K46446619] | 64.6 | 63.4 | 65.9 | –
9 | Cc1cccc(S(=O)(=O)N2CCC3C(CO)Nc4ccc(-c5ccccc5F)cc4C32)c1 (stereo not shown) [Compound 4] | – | – | – | 47
10 | CN1c2ccc(-c3ccccc3F)cc2[C@@H]2[C@@H](CCN2C(=O)NC2CCCCC2)[C@H]1CO [BRD-K80765942] | 50.0 | 50.5 | 49.6 | –
11 | OC[C@@H]1Nc2ccc(-c3ccccc3)cc2[C@@H]2[C@H]1CCN2Cc1ccc(F)cc1 [BRD-K90247032] | 49.3 | 47.6 | 51.1 | –
12 | O=C(C1CC1)N1CC[C@@H]2[C@H](CO)Nc3ccc(Br)cc3[C@@H]21 [BRD-K31090697] | 48.0 | 46.0 | 49.9 | –
13 | COc1ccccc1-c1ccc2c(c1)[C@H]1[C@H](CCN1C(=O)CN1CCOCC1)[C@H](CO)N2C [BRD-K22244182] | 50.3 | 57.2 | 43.4 | –
14 | CCC(=O)N1CC[C@H]2[C@@H]1c1cc(C#Cc3ccccc3OC)ccc1N(C)[C@H]2CO [BRD-K31513357] | 66.7 | 59.8 | 73.6 | –
15 | O=S(=O)(c1cccc(F)c1)N1CC[C@@H]2[C@H]1c1cc(C#Cc3ccccc3F)ccc1N[C@@H]2CO [BRD-K14474387] | 61.3 | 56.1 | 66.4 | –
16 | CN1c2ccc(C#Cc3ccc(F)cc3)cc2[C@@H]2[C@@H](CCN2C(=O)CN2CCOCC2)[C@H]1CO [BRD-K82266131] | 56.9 | 51.7 | 62.1 | –
17 | O=C(C1CCCCC1)N1CC[C@@H]2[C@H](CO)Nc3ccc(C#Cc4ccc(F)cc4)cc3[C@@H]21 [BRD-K72901141] | 49.5 | 53.2 | 45.9 | –
18 | CN1c2ccc(-c3ccc(F)cc3)cc2[C@H]2[C@H](CCN2S(=O)(=O)c2cccc(F)c2)[C@@H]1CO [BRD-K98925777] | 49.4 | 53.6 | 45.2 | –
19 | COc1cccc(S(=O)(=O)N2CC[C@@H]3[C@H](CO)N(C)c4ccc(C#Cc5cccnc5)cc4[C@@H]32)c1 [BRD-K29966477] | 57.5 | 50.1 | 64.8 | –

Row | Compound | Average Inhibition activity | Inhibition activity Rep 1 | Inhibition activity Rep 2 | decrease of activity with respect to BRD0539 (structural analogs of BRD0539, R2=a, R1 varied) [%]
20 | COc1ccc(S(=O)(=O)N2CC[C@H]3[C@@H](CO)N(C)c4ccc(C#Cc5ccccc5OC)cc4[C@H]32)cc1 [BRD-K83448282] | 45.7 | 46.7 | 44.6 | –
21 | CN1c2ccc(C#Cc3cccnc3)cc2[C@H]2[C@H](CCN2C(=O)C2CCCCC2)[C@H]1CO [BRD-K11970601] | 54.5 | 59.0 | 50.0 | –
22 | O=C(C1CCCCC1)N1CC[C@@H]2[C@H](CO)Nc3ccc(Br)cc3[C@@H]21 [BRD-K60987574] | 60.9 | 59.5 | 62.2 | –
23 | CN1c2ccc(C#Cc3cccnc3)cc2[C@@H]2[C@@H](CCN2C(=O)c2cccc(F)c2)[C@@H]1CO [BRD-K18296007] | 64.7 | 69.6 | 59.7 | –
24 | COc1ccc(-c2ccc3c(c2)[C@H]2[C@H](CCN2C(=O)Cc2ccncc2)[C@H](CO)N3)cc1 [BRD-K17925790] | 51.7 | 52.6 | 50.8 | –
25 | CCC(=O)N1CC[C@@H]2[C@H]1c1cc(C#Cc3ccc(F)cc3)ccc1N[C@@H]2CO [BRD-K49114971] | 56.1 | 49.0 | 63.1 | –
26 | O=C(Cc1ccccc1)N1CC[C@@H]2[C@H](CO)Nc3ccc(-c4ccc(F)cc4)cc3[C@@H]21 [BRD-K05104277] | 65.0 | 71.6 | 58.4 | –
27 | CN1c2ccc(-c3cccc(C#N)c3)cc2[C@H]2[C@H](CCN2C(=O)C2CCCCC2)[C@H]1CO [BRD-K53346571] | 52.7 | 49.1 | 56.3 | –
28 | O=C(C1CCCCC1)N1CC[C@@H]2[C@H]1c1cc(Br)ccc1N[C@@H]2CO [BRD-K20055065] | 70.7 | 67.5 | 73.9 | –
29 | COc1ccc(C#Cc2ccc3c(c2)[C@@H]2[C@@H](CCN2Cc2nccs2)[C@@H](CO)N3)cc1 [BRD-K70808105] | 51.5 | 47.4 | 55.6 | –
30 | CN1c2ccc(C#Cc3cccnc3)cc2[C@H]2[C@H](CCN2S(=O)(=O)c2ccccc2F)[C@@H]1CO [BRD-K58893765] | 62.6 | 67.8 | 57.4 | –
31 | O=C(CC1CC1)N1CC[C@@H]2[C@H]1c1cc(-c3ccc(F)cc3)ccc1N[C@@H]2CO [BRD-K03427362] | 49.4 | 48.3 | 50.6 | –
32 | O=S(=O)(c1ccc(F)cc1)N1CC[C@@H]2[C@H](CO)Nc3ccc(C#CC4CC4)cc3[C@@H]21 [BRD-K47320872] | 45.1 | 44.5 | 45.7 | –
33 | CN1c2ccc(-c3ccc(C#N)cc3)cc2[C@@H]2[C@@H](CCN2S(=O)(=O)c2cccc(F)c2)[C@H]1CO [BRD-K40448176] | 51.6 | 52.1 | 51.2 | –
34 | CN1c2ccc(C#Cc3cccnc3)cc2[C@H]2[C@H](CCN2C(=O)C2CCCCC2)[C@@H]1CO [BRD-K89354425] | 82.0 | 85.4 | 78.7 | –
35 | O=C(c1ccccc1)N1CC[C@@H]2[C@H]1c1cc(C#CC3CCCCC3)ccc1N[C@@H]2CO [BRD-K92041481] | 68.3 | 57.8 | 78.8 | –
36 | Cc1ccc(S(=O)(=O)N2CC[C@@H]3[C@H](CO)Nc4ccc(-c5cccc(C(=O)N(C)C)c5)cc4[C@@H]32)cc1 [BRD-K51395794] | 53.9 | 46.5 | 61.3 | –
37 | COc1cccc(S(=O)(=O)N2CC[C@H]3[C@@H](CO)N(C)c4ccc(C#Cc5cccnc5)cc4[C@H]32)c1 [BRD-K92333822] | 55.1 | 53.1 | 57.1 | –
38 | N#Cc1ccc(-c2ccc3c(c2)[C@H]2[C@H](CCN2C(=O)Cc2ccccc2)[C@@H](CO)N3)cc1 [BRD-K63155325] | 57.6 | 63.0 | 52.1 | –
